This note sets out measurements from PubChem BioAssay AID2384 (Southern Research Specialized Biocontainment Screening …, 2010).

In the assay the test system is S. typhi GFP reporter counter-screen, fluorescence, 4 h. In words: inhibitors in S. typhi counter-screen strain, dose response, counter-screen for PhoP regulon inhibitor project, fluorescence, 4 h (AID 2384). A general note: Counterscreens check selectivity or assay interference.

For `O=C(O)/C(=C\C(=O)c1ccccc1)Nc1ccccc1`, the IC50 is 103 µM.
Then `Nc1nnc(-c2cccc(Cl)c2Cl)c(N)n1`, with 25.8 µM; and `Cc1cc(C2N=C(N)Nc3nc4ccccc4n32)c(C)n1-c1ccccc1Cl` (stereo not drawn), with 32.8 µM.
In the case of `O=C(N/N=C/c1cc([N+](=O)[O-])ccc1O)c1cccc2cc[nH]c12`, the concentration for half-maximal inhibition (IC50) is 18.5 µM.
Then `O=C(N/N=C\c1cccc([N+](=O)[O-])c1O)C1COc2ccccc2O1` (stereo not drawn), with 11.7 µM; and `c1ccc(Nc2nc(NCc3ccco3)c3ccccc3n2)cc1`, with 21.5 µM; and `c1ccc(Nc2nc(NCC3CCCO3)c3ccccc3n2)cc1` (stereo not drawn), with 26 µM.
Then `O=C(Nc1csc(Cl)c1)c1ccccc1`, with 70.6 µM; and `COc1ccc(OCC(O)CNc2ccc(Br)cc2)cc1` (stereo not drawn), with 3.74 µM; and `CN(C)CC/C=C1/c2ccccc2Sc2ccc(Cl)cc21`, with 30.1 µM.
The same measure for `Oc1ccc(COCc2ccccc2)c2cccnc12`: 29.2 µM; for `c1ccc(CN2CCN(c3ncnc4c3[nH]c3ccccc34)CC2)cc1`: 73.8 µM.
For the molecule `Cc1ccc(C(OCC(O)CNCc2ccc(F)cc2)c2ccccc2)cc1` (stereo not drawn), the IC50 is 37 µM.
`COc1cc(/C=N/NC(=O)c2cncc(Br)c2)cc([N+](=O)[O-])c1O`: the IC50 is 19.1 µM.
The same measure for `c1ccc2c(c1)CCc1ccccc1C2=C1CCNCC1`: 58.2 µM; for `Cc1ccc(S(=O)(=O)NNc2ccccc2)c(C)c1`: 42.7 µM.
Then `CNC[C@@H](CC1CCCCC1)NC[C@H](CC(C)C)NCCc1cccc(C(F)(F)F)c1`, with 18.8 µM; and `CN1CCC(OC(=O)c2cccc(Br)c2)CC1`, with 55.9 µM; and `COc1ccc(C(=O)NC(=S)NNC(=O)CCc2ccccc2)cc1`, with 138 µM.
For the molecule `O=c1cc(-c2ccc(O)cc2)oc2c(O)c(O)c(O)c(O)c12`, the concentration for half-maximal inhibition (IC50) was 35.6 µM.
The same measure for `CN(C)C1C(=O)C(C(N)=O)=C(O)C2(O)C(=O)C3=C(O)c4c(O)cccc4C(C)(O)C3C(O)C12` (stereo not drawn): 0.83 µM; for `O=C(OCC(=O)N1CCOCC1)c1ccc[nH]c1=O`: 10.9 µM.
The same measure for `CCCCCCCCCCOC(=O)Cn1c(COc2ccccc2C)[n+](C)c2ccccc21`: 10.4 µM.
As for `Clc1ccc2[nH]c3c(c2c1)CCc1cn[nH]c1-3`, the IC50 is 105 µM.
Take `CCCCCc1ccc(OCCC[n+]2ccccc2)c(CCCCC)c1`: the 50% inhibitory concentration (IC50) was 32.9 µM.
The same measure for `Fc1ccccc1CCNCc1ccccc1`: 34.4 µM; for `O=C(Cn1nc(CNc2ccc(Br)cc2)[n+]2c1CCCCC2)c1ccc([N+](=O)[O-])cc1`: 35 µM; for `CCn1cc(C(=O)NCCCN(C)C)c(=O)c2cc(F)c(N3CCN(C)CC3)cc21`: 96.4 µM.
Then `CCn1cc(C(=O)O)c(=O)c2cc(F)c(N3CCN(C(=S)NC(=O)c4ccccc4C)CC3)cc21`, with 49.3 µM; and `N=C(N)c1ccc(/C=C/c2ccc(C(=N)N)cc2O)cc1`, with 10.5 µM; and `C/C(=N\NC(=O)c1ccc(CN2CCc3ccccc3C2)cc1)c1ccccc1O`, with 51.8 µM.
Then `Cc1cc(NC(=O)c2ccccc2)sc1C`, with 79.8 µM; and `O=C(NNC(=S)NC(=O)c1ccccc1)c1ccc(O)cc1`, with 51 µM; and `Cc1cc(Br)ccc1OCCCCNCCO`, with 30.7 µM.
Regarding `Nc1nc(Nc2ccc(Cl)cc2)nc2ccccc12`, the half-inhibitory concentration (IC50) is 17 µM.
For the molecule `C/C=C/c1ccc(OCc2cc(=O)n3cc(C)ccc3n2)c(OC)c1`, the concentration for half-maximal inhibition (IC50) was 74.7 µM.
For the molecule `Cc1cc(C)n(/N=C/c2cc([N+](=O)[O-])ccc2O)c(=O)c1`, the concentration for half-maximal inhibition (IC50) was 39.5 µM.
Then `CC[C@@H](C)[C@H](CN[C@H](CNC)C(C)C)NC[C@@H](C)c1ccc(CC(C)C)cc1`, with 26.2 µM; and `Cc1ccccc1S(=O)(=O)NNC(=O)C(=O)NNc1ccccn1`, with 36.6 µM.
Then `Nc1c2ccccc2nc2ccccc12`, with 39.5 µM; and `Fc1ccc(Nc2nc(NCc3ccco3)c3ccccc3n2)cc1`, with 20.7 µM.
The same measure for `O=C(Nc1cccc([N+](=O)[O-])c1)Nc1cccs1`: 38.9 µM; for `CC(=O)Oc1ccccc1C(=O)Nc1ncc([N+](=O)[O-])s1`: 92 µM.
Take `CCCCC(CC)CN=C(N)NC(N)=NCCCCCCN=C(N)NC(N)=NCC(CC)CCCC` (stereo not drawn): the IC50 is 4.65 µM.
Then `O=c1c2ccccc2[nH]c2ccccc12`, with 62 µM; and `CO[C@H]1C=CO[C@@]2(C)Oc3c(C)c(O)c4c(O)c(c(C=NN5CCN(C)CC5)c(O)c4c3C2=O)NC(=O)C(C)=CC=C[C@H](C)[C@H](O)[C@@H](C)[C@@H](O)[C@@H](C)[C@H](OC(C)=O)[C@@H]1C`, with 35.4 µM.
As for `CCOc1cc(CNC(C)(C)CO)cc(Br)c1OCc1ccc(Cl)cc1Cl`, the concentration for half-maximal inhibition (IC50) was 37.3 µM.
As to `Oc1ccc(C[C@@H]2CNCCN2CCC23CC4CC(CC(C4)C2)C3)cc1`, the half-inhibitory concentration (IC50) is 40.6 µM.
Then `O=c1[nH][nH]c(-c2ccccc2O)c1C(C[N+](=O)[O-])c1ccc(Br)cc1` (stereo not drawn), with 63 µM.
With `Cc1ccc2c(c1)c1c(n2CC(O)CN2CCC(C)CC2)CCCC1` (stereo not drawn), the IC50 was 82.4 µM.
Then `O=C(N/N=C/c1cc(Br)ccc1O)c1ccccc1Cl`, with 112 µM; and `Nc1ncn(C2O[C@H](CO)[C@@H](O)[C@H]2O)c(=O)n1` (stereo partly drawn), with 35.2 µM; and `CC(=O)NC(c1ccc2ccccc2c1)c1ccc2cccnc2c1O` (stereo not drawn), with 66.7 µM.
In the case of `NC1=NC[C@H](c2ccccc2)N1CCc1cc(C(F)(F)F)cc(C(F)(F)F)c1`, the IC50 was 31.1 µM.
The same measure for `CCCOc1ccc(C(=O)NNC(=S)NC(C)=O)cc1`: 39.2 µM; for `O=C(/C=C/c1ccccc1Cl)c1ccccc(=O)c1O`: 28 µM.
The same measure for `C/C(=N\N=C(N)N)c1ccc(Cl)c(Cl)c1`: 64.4 µM; for `O=C1c2cccc3cccc(c23)C(=O)C1(O)O`: 17 µM.
Then `CCc1ccc(-c2nn(-c3ccccc3)cc2CSC(=N)N)cc1`, with 19.3 µM.
As to `CCCCCCCC(=O)N/N=C/c1ccc([N+](=O)[O-])o1`, the half-inhibitory concentration (IC50) is 40.2 µM.
With `CCc1ccc(CNCc2ccc(OCC(O)CN(C)Cc3ccccc3)cc2)nc1` (stereo not drawn), the 50% inhibitory concentration (IC50) is 67.6 µM.
On to `COc1cc(/C=C2/C(=O)NN(c3ccc(F)cc3)C2=O)cc([N+](=O)[O-])c1O`, for which the IC50 was 62.6 µM.
Then `Cc1ccc(-c2c[n+](Cc3ccc(Cl)c(Cl)c3)c3n2CCC3)cc1`, with 25.8 µM; and `O=C(Nc1cccc(Cl)c1)Nc1nccs1`, with 57.3 µM.
Then `OC1CCCN(Cc2ccc3ccc4cccc5ccc2c3c45)C1` (stereo not drawn), with 59.9 µM; and `NC(=O)SCC(=O)Nc1cccc(Cl)c1`, with 60.9 µM; and `CCOC(=O)c1c(-c2ccccc2)oc2ccc(OCC(O)CNCCN(C)C)cc12` (stereo not drawn), with 36.8 µM.
Then `CN(C)c1nnnn1-c1ccc(Oc2ccccc2)cc1`, with 0.27 µM; and `CCc1ccc2c(c1)C1(NN=C(c3ccc(C)cc3)S1)C(=O)N2` (stereo not drawn), with 38.5 µM.
Turning to `CCOC(=O)C1=C(c2ccccc2)NC(N)=NC1c1ccc(OCc2ccc(C(=O)OC)cc2)cc1` (stereo not drawn), the IC50 was 35.8 µM.
The same measure for `Cc1ccc(Cn2c(=N)n(CC(O)COc3ccccc3)c3ccccc32)cc1` (stereo not drawn): 37.9 µM; for `O=C(Nc1nnc(C2COc3ccccc3O2)o1)c1ccc(F)cc1` (stereo not drawn): 37.8 µM.
The same measure for `N=c1c2c(n(Cc3cccc(Cl)c3)c3c1CCC3)CCCC2`: 47.8 µM.
Then `COc1c(N2CCN(C(=S)Nc3ccccc3F)C(C)C2)c(F)cc2c(=O)c(C(=O)O)cn(C3CC3)c12` (stereo not drawn), with 9.45 µM; and `O=C(N/N=C/c1ccccn1)c1cccs1`, with 65.5 µM; and `O=C(CSc1ccccn1)Nc1nonc1[N+](=O)[O-]`, with 116 µM.
As for `CCN1CCN(Cc2ccc(NC(=O)c3ccc(C)c(NC(=O)c4c[nH]c5cc(C(F)(F)F)ccc5c4=O)c3)cc2C(F)(F)F)CC1`, the IC50 was 34.9 µM.
Then `COc1cc(Br)cc(/C=N/c2ncn[nH]2)c1O`, with 61.3 µM.
The same measure for `O=C(O)c1sccc1Oc1ccc(F)cc1[N+](=O)[O-]`: 13.1 µM; for `CC1CCN(CCCNC(=O)c2ccc3c(=O)n(Cc4ccc(Cl)cc4)c(=S)[nH]c3c2)CC1`: 47.8 µM.
The same measure for `Oc1ccc(C2NCc3ccccc3-n3cccc32)cc1Cl` (stereo not drawn): 89 µM; for `Nc1cc(Cl)c2nonc2c1[N+](=O)[O-]`: 32.6 µM; for `CC(C(=O)c1ccc(-c2ccccc2)cc1)[n+]1cccc(NC(=O)c2ccccc2)c1` (stereo not drawn): 19.4 µM.
In the case of `O=C(Nc1ccccc1)Nc1nccs1`, the half-maximal inhibitory concentration (IC50) was 96 µM.
Then `CNCc1c(OCc2ccccc2F)ccc2ccccc12`, with 37.2 µM; and `O=[N+]([O-])c1cc(Cl)c2cccnc2c1O`, with 4.25 µM.
The same measure for `CNCC[C@H](Oc1cccc2ccccc12)c1cccs1`: 48.1 µM.
The same measure for `OCCCCNCc1ccc(OCc2ccc(Cl)cc2Cl)cc1`: 56.7 µM.
For the molecule `O=C1C(=O)c2ccccc2-c2ccccc21`, the half-inhibitory concentration (IC50) was 19.4 µM.
Then `O=C(NC(CO)Cc1ccc([N+](=O)[O-])cc1)C(Cl)Cl` (stereo not drawn), with 3.82 µM.
Then `O=C(Cn1nc(C(F)F)cc1C(F)F)NNC(=S)Nc1ccc([N+](=O)[O-])cc1`, with 69.1 µM.
Then `O=C(Cc1cccs1)N/N=C\c1ccc([N+](=O)[O-])s1`, with 50.9 µM; and `CCc1ccc2c(c1)Sc1ccccc1CC2N1CCN(C)CC1` (stereo not drawn), with 31.3 µM; and `Cc1c(Cl)cccc1Nc1nc(NCCO)c2ccccc2n1`, with 40.1 µM.
`CCCCn1c(NS(=O)(=O)c2ccccc2)c(C(=O)OCC)c2nc3ccccc3nc21`: the IC50 is 58.9 µM.
On to `Cc1cc(=O)[nH]c(-n2nc(C)cc2C)n1`, for which the half-maximal inhibitory concentration (IC50) was 68.8 µM.
Then `COc1cccc(NC2=NC3(CCCCC3)N=C(N)N2)c1`, with 148 µM; and `O=C(CSc1ccccn1)N/N=C/c1cc([N+](=O)[O-])ccc1O`, with 40.4 µM; and `Cc1nonc1C(=O)N/N=C/c1ccc(O)cc1O`, with 20.3 µM.
Turning to `O=C(N/N=C/c1cc(Cl)ccc1O)c1ccncc1`, the half-inhibitory concentration (IC50) is 17.3 µM.
For the molecule `COc1ccc(S(=O)(=O)N2CN3CCN(C3)C2)cc1`, the half-inhibitory concentration (IC50) is 90.8 µM.
The same measure for `O=c1[nH]c(-c2ccccn2)nc(C(F)(F)F)c1Br`: 51.3 µM; for `O=C(CNC(=O)c1cccc(F)c1)N/N=C/c1ccc([N+](=O)[O-])s1`: 36.9 µM.

The IC50 is the concentration that inhibits the measured activity by half.
